Target: EGFR (Homo sapiens, UniProt P00533)
Test: kinase inhibition assay panel
Format: biochemical

EGFR, sequence (P00533 25-1210, species assumed): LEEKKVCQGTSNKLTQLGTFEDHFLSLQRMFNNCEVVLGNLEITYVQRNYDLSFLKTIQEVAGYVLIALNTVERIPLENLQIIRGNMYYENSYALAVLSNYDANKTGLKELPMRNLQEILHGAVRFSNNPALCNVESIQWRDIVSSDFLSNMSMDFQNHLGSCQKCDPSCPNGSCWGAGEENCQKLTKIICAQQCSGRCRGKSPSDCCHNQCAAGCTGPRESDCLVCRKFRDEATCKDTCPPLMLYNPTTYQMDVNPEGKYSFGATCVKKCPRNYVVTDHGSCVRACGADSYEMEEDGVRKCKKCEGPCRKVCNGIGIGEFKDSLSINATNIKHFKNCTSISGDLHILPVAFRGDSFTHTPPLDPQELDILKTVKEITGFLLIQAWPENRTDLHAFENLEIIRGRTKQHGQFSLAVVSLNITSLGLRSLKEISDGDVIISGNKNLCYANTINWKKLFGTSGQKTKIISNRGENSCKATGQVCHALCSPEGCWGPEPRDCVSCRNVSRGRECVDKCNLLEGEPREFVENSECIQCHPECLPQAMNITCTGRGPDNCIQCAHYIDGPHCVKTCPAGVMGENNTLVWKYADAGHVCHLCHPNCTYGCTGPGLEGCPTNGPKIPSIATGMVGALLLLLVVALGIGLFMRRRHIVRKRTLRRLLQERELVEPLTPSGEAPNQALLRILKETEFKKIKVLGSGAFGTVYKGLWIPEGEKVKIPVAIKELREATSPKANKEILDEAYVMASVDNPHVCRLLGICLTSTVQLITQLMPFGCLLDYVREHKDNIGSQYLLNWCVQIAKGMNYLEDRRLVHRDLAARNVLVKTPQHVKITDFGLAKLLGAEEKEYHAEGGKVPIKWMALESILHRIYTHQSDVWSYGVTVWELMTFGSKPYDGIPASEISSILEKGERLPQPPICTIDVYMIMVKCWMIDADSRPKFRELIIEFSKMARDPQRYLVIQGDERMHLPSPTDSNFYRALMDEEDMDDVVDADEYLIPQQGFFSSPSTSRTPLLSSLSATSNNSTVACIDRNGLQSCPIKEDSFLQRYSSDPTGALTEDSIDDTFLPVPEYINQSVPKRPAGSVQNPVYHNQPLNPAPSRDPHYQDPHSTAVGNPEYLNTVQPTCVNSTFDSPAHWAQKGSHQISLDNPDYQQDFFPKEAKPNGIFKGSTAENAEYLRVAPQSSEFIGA

inhibition of EGFR: lower than 40%
SMILES: Nc1ncc(-c2nc3ccccc3o2)c(-c2ccncc2)n1 [Compound 324, 5-(1,3-benzoxazol-2-yl)-4-(pyridin-4-yl)pyrimidin-2-amine]

Source: patent US9789111B2, “Casein kinase 1δ (CK 1δ) inhibitors” (Electrophoretics Limited, priority 2010, dated 2017)
